In ChEMBL document CHEMBL1141801, “N-(jasmonoyl)tyrosine-derived compounds from flowers of broad beans (Vicia faba)” (J Nat Prod, 2005):
The source made the active and inactive calls. The rule behind the calls is not given here.

Tests used:
[1] = target: T1, Tyrosinase (Agaricus bisporus) (UniProt O42713); assay: Activity of mushroom tyrosinase assessed as specific activity pkat per mg of protein
T1 sequence (whole entry): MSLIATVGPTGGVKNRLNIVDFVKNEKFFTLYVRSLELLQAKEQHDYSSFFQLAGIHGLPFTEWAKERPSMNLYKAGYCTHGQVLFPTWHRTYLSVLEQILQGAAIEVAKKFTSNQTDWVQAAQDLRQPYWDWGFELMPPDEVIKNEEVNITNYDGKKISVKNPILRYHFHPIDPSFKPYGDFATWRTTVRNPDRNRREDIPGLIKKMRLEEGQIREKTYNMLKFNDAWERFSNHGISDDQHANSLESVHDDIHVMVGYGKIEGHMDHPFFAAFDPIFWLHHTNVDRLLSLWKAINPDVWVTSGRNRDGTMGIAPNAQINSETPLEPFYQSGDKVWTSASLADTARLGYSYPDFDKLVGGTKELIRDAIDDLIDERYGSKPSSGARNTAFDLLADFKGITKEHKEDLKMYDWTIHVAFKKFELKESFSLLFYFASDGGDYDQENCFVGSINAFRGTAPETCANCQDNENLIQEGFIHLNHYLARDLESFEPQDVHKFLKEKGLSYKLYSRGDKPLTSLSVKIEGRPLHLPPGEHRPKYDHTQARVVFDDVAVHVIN

[2] = test system: Eschscholzia californica; assay: Elicitor activity in Eschscholzia californica Cham. assessed as elicitation of chelirubine formation at 300 uM; type: functional, organism-based
[3] = test system: Eschscholzia californica; assay: Elicitor activity in Eschscholzia californica Cham. assessed as elicitation of chelirubine formation at 30 uM; type: functional, organism-based
[4] = test system: Eschscholzia californica; assay: Elicitor activity in Eschscholzia californica Cham. assessed as elicitation of chelirubine formation; type: functional, organism-based

Compound | Activity [1] | Activity [2] | Activity [3] | Activity [4]
N[C@@H](Cc1ccc(O)cc1)C(=O)O | 15600 |  |  | 
CC/C=C\CC1C(=O)CCC1CC(=O)N[C@@H](Cc1ccc(O)cc1)C(=O)O (mixture of isomers) | 2320 |  |  | 
CC/C=C\CC1C(=O)CCC1CC(=O)NCCc1ccc(O)c(O)c1 (racemic) |  | Active | Active | 
CC/C=C\CC1C(=O)CCC1CC(=O)NCCc1ccc(O)cc1 (racemic) | 5630 | Active | Active | 
CC/C=C\CC1C(=O)CCC1CC(=O)O (racemic) |  |  |  | Active
